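Briefly, cells in 96-well plates were exposed to five compound concentrations for 48 h, and endpoints were estimated by linear interpolation. The concentration for 50% growth inhibition is given as GI50.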 Activity calls are given as the source filed them. Cut-off read from the data, not from the text of the source: active = GI50 up to about 1.1 µM and inactive = higher.
Legend:
Test in all cases: DTP human tumour cell line panel, 48 h
[1] = tested on: KM-20L2
[2] = tested on: DMS-114
[3] = tested on: M19-MEL
[4] = tested on: XF498
[5] = tested on: RXF 631
[6] = tested on: HOP-18
[7] = tested on: SNB-78
[8] = tested on: DLD-1

Measured: GI50

CCCCC(C(=O)C(=O)NC1C2CC3CC(C2)CC1C3)C(=O)C(C)C (stereo not given)
inactive: [1] > 100 µM | [2] > 100 µM | [3] > 100 µM | [4] > 100 µM | [5] > 100 µM | [6] > 100 µM | [7] > 100 µM

COC(=O)C(Cc1nc2ccccc2nc1O)C(=O)C(=O)Nc1ccc([N+](=O)[O-])cc1[N+](=O)[O-] (stereo not given)
inactive: [1] 20.4 µM | [8] 19.5 µM | [2] 16.1 µM | [3] 16.6 µM | [4] 20.1 µM | [5] 24.5 µM | [6] 16.8 µM | [7] 38.4 µM

c1ccc(CN(Cc2ccccn2)Cn2cccn2)nc1
inactive: [1] 51.5 µM | [8] 30.2 µM | [2] 22.1 µM | [3] 35 µM | [4] 60 µM | [5] 38 µM | [7] > 100 µM

CCOC(=O)C(C)(C)Oc1ccc2c(=O)cc(-c3ccc(Cl)cc3)oc2c1
inactive: [1] > 100 µM | [8] > 100 µM | [2] > 100 µM | [3] > 100 µM | [4] > 100 µM | [5] > 100 µM

COc1ccccc1NC(=O)C(CC(C(=O)Nc1ccccc1OC)/C(C)=N/Nc1ccc([N+](=O)[O-])cc1[N+](=O)[O-])/C(C)=N/Nc1ccc([N+](=O)[O-])cc1[N+](=O)[O-] (stereo not given)
inactive: [1] > 100 µM | [8] 80.4 µM | [3] > 100 µM | [4] 51.6 µM | [5] 40.6 µM | [6] > 95.3 µM | [7] > 100 µM

CC(=O)[O-].Cc1ncc(CO)c(/C=N/NC(N)=S)c1[O-].[Zn+2]
inactive: [8] > 100 µM | [2] > 100 µM | [3] > 100 µM | [5] > 100 µM | [6] > 100 µM | [7] > 100 µM

Cc1cccc2c1C/C(=C1\CCc3c(C)cccc31)C2=O
inactive: [1] > 100 µM | [8] > 100 µM | [2] > 100 µM | [3] > 100 µM | [5] > 100 µM | [6] 38.3 µM

C=CCNC(=O)N(CCCCC(NC(C)=O)C(=O)NCc1ccccc1)Cc1ccccc1 (stereo not given)
inactive: [1] > 100 µM | [3] > 100 µM | [4] > 100 µM | [5] > 100 µM | [6] > 100 µM

O=C(CO)CC(=O)C(=O)Nc1nc([N+](=O)[O-])cs1
inactive: [1] > 100 µM | [8] > 100 µM | [2] > 100 µM | [3] > 100 µM | [5] > 100 µM | [6] > 100 µM | [7] > 100 µM

COc1ccc(OC)c2[nH]c(Sc3c([N+](=O)[O-])ncn3C)nc12
inactive: [1] 20.4 µM | [8] 20.6 µM | [2] 17.4 µM | [3] 20.6 µM | [4] 17.3 µM | [5] 18.5 µM | [7] 20.9 µM

CC1CC[C@]2(C(=O)O)CCC3(C)C(=CC(=O)C4[C@@]5(C)CCC(=O)C(C)(C)C5CC[C@]43C)[C@@H]2[C@H]1C (stereo not given in full)
inactive: [1] > 10 µM | [2] 19.7 µM | [3] 23.3 µM | [4] 10 µM | [5] 27.3 µM | [6] 31.9 µM | [7] 46.2 µM

COc1ccc(OC(C(=O)O)c2ccccc2)c2c1CCCC2=O (stereo not given)
inactive: [1] > 100 µM | [8] > 100 µM | [2] > 100 µM | [3] > 100 µM | [4] > 100 µM | [5] > 100 µM | [6] > 100 µM | [7] > 100 µM

Cc1ccc(S(=O)(=O)N/N=C\c2c3ccccc3[n+]([O-])c3ccccc23)cc1
inactive: [1] 2.96 µM | [8] 2.65 µM | [2] 3.37 µM | [3] 7.67 µM | [5] 3.01 µM | [6] 6.76 µM | [7] 6.71 µM

CC(=O)N(O)Cc1ccccc1
inactive: [1] > 100 µM | [8] > 100 µM | [2] > 100 µM | [3] > 100 µM | [4] > 100 µM | [5] > 100 µM | [7] > 100 µM

From ChEMBL document CHEMBL1201862, “PubChem BioAssay data set” (2004)
